From patent US8487108B2, “Piperidinyl carbamate intermediates for the synthesis of aspartic protease inhibitors” (Vitae Pharmaceuticals, Inc., priority 2005, dated 2013) come the findings set out here.

A value given as a limit tells only on which side of the number the result lay.

The target of this assay is T1, trypsin-activated recombinant human renin (Homo sapiens, UniProt P00797).
T1 sequence (P00797 67-406): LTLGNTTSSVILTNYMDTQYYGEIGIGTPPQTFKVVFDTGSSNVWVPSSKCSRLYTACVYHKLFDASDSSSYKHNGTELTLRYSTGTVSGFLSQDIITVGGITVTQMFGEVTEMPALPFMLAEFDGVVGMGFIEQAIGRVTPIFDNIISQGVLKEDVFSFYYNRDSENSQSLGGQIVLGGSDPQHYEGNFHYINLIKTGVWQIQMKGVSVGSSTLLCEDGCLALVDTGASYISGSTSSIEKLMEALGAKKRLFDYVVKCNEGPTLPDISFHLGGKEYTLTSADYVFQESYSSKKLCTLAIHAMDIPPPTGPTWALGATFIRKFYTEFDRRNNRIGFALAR
Briefly: Renin fluorescence assay (internally quenched peptide substrate). Type of assay: biochemical. The conditions noted are these: compounds I*. Here is the method:
The sequence of this peptide corresponds to the sequence of human angiotensinogen. The following test protocol can be used. All reactions are carried out in a flat bottom white opaque microtiter plate. A 4 μL aliquot of 400 μM renin substrate (DABCYL-γ-[…]) in 192 μL assay buffer (50 mM BES, 150 mM NaCl, 0.25 mg/mL bovine serum albumin, pH7.0) is added to 4 μL of test compound in DMSO at various concentrations ranging from 10 μM to 1 nM final concentrations. Next, 100 μL of trypsin-activated recombinant human renin (final enzyme concentration of 0.2-2 nM) in assay buffer is added, and the solution is mixed by pipetting. The increase in fluorescence at 495 nm (excitation at 340 nm) is measured for 60-360 minutes at rt using a Perkin-Elmer Fusion microplate reader. The slope of a linear portion of the plot of fluorescence-increase as a function of time is then determined, and the rate is used for calculating percent inhibition in relation to uninhibited control. […] (Wang G. T. et al. Anal. Biochem. 1993, 210, 351; Nakamura, N. et al. J. Biochem. (Tokyo) 1991, 109, 741; Murakami, K. et al. Anal Biochem. 1981, 110, 232).

Regarding `CNC[C@H](CC1CCOCC1)NC(=O)N1CCC[C@@H]([C@@H](OCCNC(=O)OC)c2cc(F)cc(F)c2)C1` [I*-70a, methyl 2-((R)-(3,5-difluorophenyl)((R)-1-((S)-1-(methylamino)-3-(tetrahydro-2H-pyran-4-yl)propan-2-ylcarbamoyl)piperidin-3-yl)methoxy)ethylcarbamate], the IC50 was below 20 nM.

Turning to `CNC[C@H](CCC1(OC)CCCC1)NC(=O)N1CCC[C@@H]([C@@H](OCCNC(=O)OC)c2cccc(F)c2)C1` [I*-78a, methyl 2-((R)-(3-fluorophenyl)((R)-1-((S)-4-(1-methoxycyclopentyl)-1-(methylamino)butan-2-yl-carbamoyl)piperidin-3-yl)methoxy)ethylcarbamate], the IC50 is above 50 nM.

In the case of `CCNC[C@H](CC1CCCCC1)NC(=O)N1CCC[C@@H]([C@@H](OCCNC(=O)OC)c2cccc(F)c2)C1` [I*-41a, methyl 2-((R)-((R)-1-((S)-1-cyclohexyl-3-(ethylamino)propan-2-ylcarbamoyl)piperidin-3-yl)(3-fluorophenyl)methoxy)ethylcarbamate], the IC50 was below 10 nM.

Regarding `CNC[C@H](CC1CCOCC1)NC(=O)N1CCCC([C@@H](OCCNC(=O)OC)c2c(C)ccc(F)c2F)C1` (stereo partly drawn) [I*-115a, methyl 2-((R)-(2,3-difluoro-6-methylphenyl)(1-((S)-1-(methylamino)-3-(tetrahydro-2H-pyran-4-yl)propan-2-ylcarbamoyl)piperidin-3-yl)methoxy)ethylcarbamate], the IC50 is below 10 nM.

As to `CC[C@@H](NC)[C@H](CC1CCCCC1)NC(=O)N1CCC[C@@H]([C@@H](OCCNC(=O)OC)c2cccc(Cl)c2)C1` [I*-130a, methyl 2-((R)-(3-chlorophenyl)((R)-1-((2S,3R)-1-cyclohexyl-3-(methylamino)pentan-2-ylcarbamoyl)piperidin-3-yl)methoxy)ethylcarbamate], the IC50 is below 20 nM.

In the case of `CNC[C@H](CC1CCCCC1)NC(=O)N1CCC[C@@H]([C@@H](OCCNC(=O)OC)c2c(C)ccc(F)c2F)C1` [I*-96a, methyl 2-((R)-((R)-1-((S)-1-cyclohexyl-3-(methylamino)propan-2-ylcarbamoyl)piperidin-3-yl)(2,3-difluoro-6-methylphenyl)methoxy)ethylcarbamate], the IC50 was below 10 nM.

With `CNC[C@@H](CC1(C)CCCCC1)NC(=O)N1CCC[C@@H]([C@@H](OCCNC(=O)OC)c2cccc(Cl)c2)C1` [I*-89a, methyl 2-((R)-(3-chlorophenyl)((R)-1-((R)-1-(methylamino)-3-(1-methylcyclohexyl)propan-2-ylcarbamoyl)piperidin-3-yl)methoxy)ethylcarbamate], the IC50 is above 50 nM.

With `CCC(C)(C)C[C@@H](CNC)NC(=O)N1CCC[C@@H]([C@@H](OCCNC(=O)OC)c2cccc(Cl)c2)C1` [I*-34a, methyl 2-((R)-(3-chlorophenyl)((R)-1-((S)-4,4-dimethyl-1-(methylamino)hexan-2-ylcarbamoyl)piperidin-3-yl)methoxy)ethylcarbamate], the IC50 is below 10 nM.

`CNC[C@H](C[C@H]1CCCCOC1)NC(=O)N1CCC[C@@H]([C@@H](OCCNC(=O)OC)c2cccc(Cl)c2F)C1` [I*-140a, methyl 2-((R)-(3-chloro-2-fluorophenyl)((R)-1-((S)-1-(methylamino)-3-((R)-oxepan-3-yl)propan-2-ylcarbamoyl)piperidin-3-yl)methoxy)ethylcarbamate]: the IC50 was below 1 nM.

`COC(=O)NCCO[C@@H](c1cccc(Cl)c1)[C@@H]1CCCN(C(=O)NC[C@@H](N)C[C@H]2CCCCOC2)C1` [I*-68a, methyl 2-((R)-((R)-1-((S)-2-amino-3-((R)-oxepan-3-yl)propylcarbamoyl)piperidin-3-yl)(3-chlorophenyl)methoxy)ethylcarbamate]: the IC50 was below 1 nM.

In the case of `CNC[C@H](CC1CCOCC1)NC(=O)N1CCC[C@@H]([C@@H](OCCNC(=O)OC)c2cc(C)ccc2F)C1` [I*-49a, methyl 2-((R)-(2-fluoro-5-methylphenyl)((R)-1-((S)-1-(methylamino)-3-(tetrahydro-2H-pyran-4-yl)propan-2-ylcarbamoyl)piperidin-3-yl)methoxy)ethylcarbamate], the IC50 was above 50 nM.

Regarding `CNC[C@@H](NC(=O)N1CCC[C@@H]([C@@H](OCCNC(=O)OC)c2cc(F)ccc2C)C1)[C@@H](O)C1CCCC1` [I*-53a, methyl 2-((R)-((R)-1-((1S,2R)-1-cyclopentyl-1-hydroxy-3-(methylamino)propan-2-ylcarbamoyl)piperidin-3-yl)(5-fluoro-2-methylphenyl)methoxy)ethylcarbamate], the IC50 was below 20 nM.

For the compound `CNC[C@H](CC1CCCCC1)NC(=O)N1CCC[C@@H]([C@@H](OCCNC(=O)OC)C2CCCCC2)C1` [I*-10a, methyl 2-((S)-cyclohexyl((R)-1-((S)-1-cyclohexyl-3-(methylamino)propan-2-ylcarbamoyl)piperidin-3-yl)methoxy)ethylcarbamate], the IC50 was below 10 nM.

For `CNC[C@H](CC1CCCC1)NC(=O)N1CCC[C@@H]([C@@H](OCCNC(=O)OC)c2cccc(Cl)c2)C1` [I*-29a, methyl 2-((R)-(3-chlorophenyl)((R)-1-((S)-1-cyclopentyl-3-(methylamino)propan-2-ylcarbamoyl)piperidin-3-yl)methoxy)ethylcarbamate], the IC50 was below 1 nM.

Take `CNCC(C[C@H]1C[C@@H](C)O[C@@H](C)C1)NC(=O)N1CCC[C@@H]([C@@H](OCCNC(=O)OC)c2cccc(Cl)c2)C1` (stereo partly drawn) [I*-132a, methyl 2-((R)-(3-chlorophenyl)((R)-1-((S)-1-((2S,4r,6R)-2,6-dimethyl-tetrahydro-2H-pyran-4-yl)-3-(methylamino)propan-2-ylcarbamoyl)piperidin-3-yl)methoxy)ethylcarbamate]: the IC50 was above 50 nM.

As for `CNC[C@@H](NC(=O)N1CCC[C@@H]([C@@H](OCCNC(=O)OC)c2cccc(Cl)c2F)C1)[C@@H](O)C1CCCCC1` [I*-138a, methyl 2-((R)-(3-chloro-2-fluorophenyl)((R)-1-((1S,2R)-1-cyclohexyl-1-hydroxy-3-(methylamino)propan-2-ylcarbamoyl)piperidin-3-yl)methoxy)ethylcarbamate], the IC50 is below 10 nM.

As to `CNC[C@H](CC1CCCCC1)NC(=O)N1CCC[C@@H]([C@@H](OCCNC(=O)OC)c2nccs2)C1` [I*-13a, methyl 2-((R)-((R)-1-((S)-1-cyclohexyl-3-(methylamino)propan-2-ylcarbamoyl)piperidin-3-yl)(thiazol-2-yl)methoxy)ethylcarbamate], the IC50 was below 20 nM.

With `CNC[C@H](C[C@H]1CCC(=O)N(C)C1)NC(=O)N1CCC[C@@H]([C@@H](OCCNC(=O)OC)c2cccc(F)c2)C1` [I*-76a, methyl 2-((R)-(3-fluorophenyl)((R)-1-((S)-1-((R)-1-methyl-6-oxopiperidin-3-yl)-3-(methylamino)propan-2-ylcarbamoyl)piperidin-3-yl)methoxy)ethylcarbamate], the IC50 is above 50 nM.

As for `CNC[C@H](CC1CCCCC1)NC(=O)N1CCC[C@@H]([C@@H](OCCNC(=O)OC)c2cc(Cl)ccc2F)C1` [I*-117a, methyl 2-((R)-(5-chloro-2-fluorophenyl)((R)-1-((S)-1-cyclohexyl-3-(methylamino)propan-2-ylcarbamoyl)piperidin-3-yl)methoxy)ethylcarbamate], the IC50 was below 1 nM.

Usually IC50 stands for the point on the concentration scale where inhibition reaches its midpoint.
